Patent US9708338B2, “Aromatic heterocyclylamine derivative having TRPV4-inhibiting activity” (Shionogi & Co., Ltd., priority 2013, dated 2017)

Key:
human TRPV4 [1] = molecular target: T1, human TRPV4 (Homo sapiens, UniProt Q9HBA0); assay: Test Example 1 Measurement of TRPV4 inhibitory activity (IC50 value); format: cell-based; conditions: CHO-K1 cells stably expressing human TRPV4; Fluo 4-AM, FLIPR TETRA; final 1 μmol/L 4α-PDD
T1 construct: expressed in transfected cells; host or cells: CHO-K1
Description: (§1) For each compound, TRPV4 inhibitory activity was measured using cells. (Method) TRPV4 inhibitory activity of the compound was evaluated in accordance with the following procedure.
(§2) (1) The TRPV4 inhibitory activity was measured using CHO-K1 cells stably expressing human TRPV4.
(2) In the day before the experimental day, frozen cell were thawed and washed with the culture medium (MEM-α, 10% FBS, 2 mmol/L GlutaMax, 50 unit Penicillin, 50 μg/mL Streptomycin, 20 mmol/L HEPES). Then cells were suspended in the culture medium.
(3) The 384-well plates which hTRPV4/CHO cells were seeded at densities of 4000 cells/well in the culture medium and cultured in a CO2 incubator in the presence of 5% CO2 at 37° C. for overnight was used as assay plates.
(4) The assay plate was washed with assay buffer (Hanks, 20 mmol/L HEPES, 2.5 mmol/L probenecid, pH 7.4), and the buffer were remained at 20 μL/well.
(5) 10 μl of dye loading buffer (9 μmol/L Fluo 4-AM, 0.09% Pluronic F-127/assay buffer) was added to each well, then the assay plate was incubated in a CO2 incubator in the presence of 5% CO2 at 37° C. for one hour (final 3 μmol/L Fluo4-AM).
(6) The assay plate was washed with the assay buffer, and the buffers were remained at 20 μL/well. Then the assay plate was incubated for 10 min at room temperature.
(7) 20 μL/well of diluted compound solution was dispensed to each well in the compound plate, and mixed with built-in Pipette and Mixer of the Fluorescence analysis system FLIPR TETRA (Molecular devices).
(8) After incubation for 5 min, 20 μL/well of 4α-PDD solution were applied to each well of assay plate and mixed with the FLIPR TETRA (final 1 μmol/L 4α-PDD).
(9) The fluorescent intensity was measured with FLIPR TETRA system for 5 min from the point of time addition the compound solution, at Ex 470-495 nm, Em 515-575 nm wavelength.
(§3) In addition, TRPV4 inhibitory activity (IC50 value) of a compound was evaluated according to the following procedure.
(10) In the presence of the compound, the difference between maximal and minimal of fluorescent intensity value for 5 min from just before addition of 4α-PDD solution was calculated, and it was referred as Max−Min value. Max−Min value of the compound A at 1 μmol/L was defined as 100% inhibitory activity, Max−Min value in the absence of the compound was defined as 0% inhibitory activity. The TRPV4 inhibitory activity of the compound was calculated by the following formula. Inhibition ratio=(1−(Max−Min value of the compound−100% inhibitory activity)/(0% inhibitory activity−100% inhibitory activity))×100
Herein, the compound A is the compound I-186 described in PCT/JP2013/058722.
(11) Inhibitory activity was calculated at 10 points with three fold serial dilution, in the final concentration of the compound from 10 μmol/L to 0.5 nmol/L, the IC50 value (nmol/L) was calculated by logistic approximation method.

[2] = Test Example 7 Metabolism stability test; format: in vitro ADME; conditions: 0.5 μmol/L of test compound, human liver microsomes 0.5 mg protein/mL, 37° C.
Description: Using commercially available pooled human hepatic microsomes, a compound of the present invention was reacted for a constant time, and a remaining rate was calculated by comparing a reacted sample and an unreacted sample, thereby, a degree of metabolism in liver was assessed.
A reaction was performed (oxidative reaction) at 37° C. for 0 minute or 30 minutes in the presence of 1 mmol/L NADPH in 0.2 mL of a buffer (50 mmol/L Tris-HCl pH 7.4, 150 mmol/L potassium chloride, 10 mmol/L magnesium chloride) containing 0.5 mg protein/mL of human liver microsomes. After the reaction, 50 μL of the reaction solution was added to 100 μL of a methanol/acetonitrile=1/1 (v/v), mixed and centrifuged at 3000 rpm for 15 minutes. The compound of the present invention in the supernatant was quantified by LC/MS/MS, and a remaining amount of the compound of the present invention after the reaction was calculated, letting a compound amount at 0 minute reaction time to be 100%. Hydrolysis reaction was performed in the absence of NADPH and glucuronidation reaction was in the presence of 5 mmol/L UDP-glucuronic acid in place of NADPH, followed by similar operations. (Result) % inhibition was shown at 0.5 μmol/L of test compound.

[3] = molecular target: T2, human ether-a-go-go related gene (hERG) channel (Homo sapiens, UniProt Q12809); assay: Test Example 8 hERG test; format: cell-based; conditions: 1 μmol/L of test compound; CHO cells expressing hERG; whole cell patch clamp (QPatch)
T2 construct: expressed in transfected cells; host or cells: CHO
Description: For the purpose of assessing risk of an electrocardiogram QT interval prolongation of the compound of the present invention, effects of the compound of the present invention on delayed rectifier K^+ current (IKr), which plays an important role in the ventricular repolarization process, was studied using CHO cells expressing human ether-a-go-go related gene (hERG) channel.
After a cell was retained at a membrane potential of −80 mV by whole cell patch clamp method using an automated patch clamp system (QPatch; Sophion Bioscience A/S), IKr induced by depolarization pulse stimulation at +20 mV for 2 seconds and, further, repolarization pulse stimulation at −50 mV for 2 seconds, was recorded. […] From the recording IKr, an absolute value of the tail peak current was measured based on the current value at the resting membrane potential using analysis software (Falster Patch; Sophion Bioscience A/S). Further, the % inhibition relative to the tail peak current before application of the compound of the present invention was calculated, and compared with the vehicle-applied group (0.1% dimethyl sulfoxide solution) to assess influence of the compound of the present invention on IKr. […]

CYP3A4 = molecular target: T3, CYP3A4 (Homo sapiens, UniProt P08684); assay: Test Example 3 CYP3A4 fluorescent MBI test; format: in vitro ADME; conditions: CYP3A4 expressed in Escherichia coli; substrate 7-BFC; pre-reaction time 0 or 30 minutes
T3 construct: host or cells: Escherichia coli
Description: The CYP3A4 fluorescent MBI test is a test of investigating enhancement of CYP3A4 inhibition of a compound of the present invention by a metabolism reaction, and the test was performed using, as CYP3A4 enzyme expressed in Escherichia coli and employing, as an index, a reaction in which 7-benzyloxytrifluoromethylchmarin (7-BFC) is debenzylated by the CYP3A4 enzyme to produce a metabolite, 7-hydroxytrifluoromethylchmarin (7-HFC) emitting fluorescent light.
The reaction conditions were as follows: substrate, 5.6 μmol/L 7-BFC; pre-reaction time, 0 or 30 minutes; reaction time, 15 minutes; reaction temperature, 25° C. […]
An enzyme in a K-Pi buffer (pH 7.4) and a solution of a compound of the present invention as a pre-reaction mixture were added to a 96-well plate at the above composition of the pre-reaction, a part of it was transferred to another 96-well plate so that it was 1/10 diluted by a substrate in a K-Pi buffer, NADPH as a co-factor was added to initiate a reaction as an index (without preincubation) and, after a predetermined time of a reaction, acetonitrile/0.5 mol/L Tris (trishydroxyaminomethane)=4/1 (v/v) was added to stop the reaction. […] For the plate on which each index reaction had been performed, a fluorescent value of 7-HFC which is a metabolite was measured with a fluorescent plate reader. […]

human TRPV4 [4] = molecular target: T1, human TRPV4; assay: Test Example 2' Measurement of TRPV4 inhibitory activity (IC50 value); format: cell-based; conditions: CHO-K1 cells stably expressing human TRPV4; DMEM 3% FBS, 3000 cells/well; final 0.15 μmol/L 4α-PDD
Description: as §1, §2
(2) In the day before the experimental day, frozen cell were thawed and washed with the culture medium (DMEM, 3% FBS, 2 mmol/L GlutaMax, 50 unit Penicillin, 50 μg/mL Streptomycin, 0.1 mmol/L Non-Essential Amino Acids, 25 mmol/L HEPES). Then cells were suspended in the culture medium. […] (7) 20 μL/well of diluted compound solution was dispensed to each well in the compound plate, and mixed with built-in Pipette and Mixer of the Fluorescence analysis system FLIPR TETRA (Molecular devices). […] (9) The fluorescent intensity was measured with FLIPR TETRA system for 5 min from the point of time addition the compound solution, at Ex 470-495 nm, Em 515-575 nm wavelength.
as §3
(10) In the presence of the compound, the difference between maximal and minimal of fluorescent intensity value for 5 min from just before addition of 4α-PDD solution was calculated, and it was referred as Max−Min value. […] The TRPV4 inhibitory activity of the compound was calculated by the following formula. […]

T1 sequence (Q9HBA0 whole entry): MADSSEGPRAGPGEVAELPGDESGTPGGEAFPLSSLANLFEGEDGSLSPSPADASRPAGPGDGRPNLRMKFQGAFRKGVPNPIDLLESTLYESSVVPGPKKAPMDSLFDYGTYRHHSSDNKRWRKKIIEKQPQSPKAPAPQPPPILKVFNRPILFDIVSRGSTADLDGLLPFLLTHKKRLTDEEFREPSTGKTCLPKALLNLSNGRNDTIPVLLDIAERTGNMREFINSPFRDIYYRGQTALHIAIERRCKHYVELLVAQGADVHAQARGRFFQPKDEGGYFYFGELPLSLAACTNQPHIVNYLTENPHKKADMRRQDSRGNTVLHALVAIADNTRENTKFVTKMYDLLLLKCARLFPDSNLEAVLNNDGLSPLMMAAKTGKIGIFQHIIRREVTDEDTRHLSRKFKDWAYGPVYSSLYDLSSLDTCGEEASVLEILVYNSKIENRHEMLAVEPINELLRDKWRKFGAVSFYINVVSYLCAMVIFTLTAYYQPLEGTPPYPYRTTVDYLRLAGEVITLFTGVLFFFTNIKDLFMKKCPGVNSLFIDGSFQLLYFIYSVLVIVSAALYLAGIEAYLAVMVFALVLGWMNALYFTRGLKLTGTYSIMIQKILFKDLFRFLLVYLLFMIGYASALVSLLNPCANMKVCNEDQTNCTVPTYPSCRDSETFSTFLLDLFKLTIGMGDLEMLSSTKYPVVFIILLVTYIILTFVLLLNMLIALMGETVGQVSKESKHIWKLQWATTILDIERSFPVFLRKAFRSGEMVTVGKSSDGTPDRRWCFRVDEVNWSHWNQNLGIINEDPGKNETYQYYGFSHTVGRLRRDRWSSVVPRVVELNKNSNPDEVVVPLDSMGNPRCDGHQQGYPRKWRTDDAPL
T2 sequence (Q12809 whole entry): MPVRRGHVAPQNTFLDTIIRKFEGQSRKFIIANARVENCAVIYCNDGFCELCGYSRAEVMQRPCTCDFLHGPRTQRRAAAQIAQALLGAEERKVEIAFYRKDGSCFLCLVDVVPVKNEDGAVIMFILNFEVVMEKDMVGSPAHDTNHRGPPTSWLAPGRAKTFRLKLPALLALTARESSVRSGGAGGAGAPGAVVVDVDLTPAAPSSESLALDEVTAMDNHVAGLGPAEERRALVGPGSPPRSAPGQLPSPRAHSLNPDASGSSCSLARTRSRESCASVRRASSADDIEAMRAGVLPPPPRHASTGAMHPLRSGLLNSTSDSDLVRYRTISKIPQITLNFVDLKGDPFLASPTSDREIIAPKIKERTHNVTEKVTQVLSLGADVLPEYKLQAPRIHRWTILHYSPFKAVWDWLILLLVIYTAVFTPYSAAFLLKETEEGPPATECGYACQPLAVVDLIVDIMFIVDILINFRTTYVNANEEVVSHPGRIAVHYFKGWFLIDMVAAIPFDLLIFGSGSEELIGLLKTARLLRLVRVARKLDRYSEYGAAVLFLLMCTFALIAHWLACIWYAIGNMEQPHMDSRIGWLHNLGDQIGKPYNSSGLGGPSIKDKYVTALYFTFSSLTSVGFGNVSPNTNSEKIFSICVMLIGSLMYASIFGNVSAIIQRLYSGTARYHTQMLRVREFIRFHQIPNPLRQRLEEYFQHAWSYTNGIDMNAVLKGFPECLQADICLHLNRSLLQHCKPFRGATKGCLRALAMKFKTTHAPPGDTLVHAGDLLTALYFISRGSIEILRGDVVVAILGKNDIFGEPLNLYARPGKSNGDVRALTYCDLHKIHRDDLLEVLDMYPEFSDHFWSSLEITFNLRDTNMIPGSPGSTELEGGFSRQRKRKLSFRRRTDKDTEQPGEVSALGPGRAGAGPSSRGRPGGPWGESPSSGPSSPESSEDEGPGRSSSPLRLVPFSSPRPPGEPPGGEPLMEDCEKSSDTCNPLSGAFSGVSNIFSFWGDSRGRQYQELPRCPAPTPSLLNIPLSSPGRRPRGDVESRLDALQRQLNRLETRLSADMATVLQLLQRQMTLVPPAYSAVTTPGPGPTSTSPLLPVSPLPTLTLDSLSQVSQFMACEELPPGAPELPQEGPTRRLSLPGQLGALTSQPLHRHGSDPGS
T3 sequence (P08684 whole entry): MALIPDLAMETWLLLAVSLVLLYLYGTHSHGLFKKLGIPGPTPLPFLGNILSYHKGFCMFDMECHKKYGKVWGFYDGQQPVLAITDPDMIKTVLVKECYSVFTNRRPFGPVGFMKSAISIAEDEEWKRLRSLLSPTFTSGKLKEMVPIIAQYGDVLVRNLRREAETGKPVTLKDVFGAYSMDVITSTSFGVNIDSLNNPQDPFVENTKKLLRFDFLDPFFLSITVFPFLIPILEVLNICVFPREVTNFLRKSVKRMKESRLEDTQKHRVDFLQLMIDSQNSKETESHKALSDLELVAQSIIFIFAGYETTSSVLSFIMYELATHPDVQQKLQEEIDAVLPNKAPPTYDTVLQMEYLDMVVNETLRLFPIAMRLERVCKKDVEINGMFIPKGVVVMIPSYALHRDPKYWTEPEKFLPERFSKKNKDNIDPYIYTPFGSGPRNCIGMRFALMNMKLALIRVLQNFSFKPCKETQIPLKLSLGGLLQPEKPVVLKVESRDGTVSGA

Row | IC50 (human TRPV4 [1]) [nM] | Percent of compound remaining after 30 min incubation [2] [%] | IC50 (human TRPV4 [4]) [nM] | Compound | hERG % inhibition of tail peak current (IKr) [3] [%] | CYP3A4 fluorescent MBI: difference between IC50 values (CYP3A4)
1 | 1.2 | 78.6 |  | Cc1nc(C)c(-c2csc(Nc3ccc(CNc4ccc(Cl)cc4F)cn3)n2)s1 [Compound I-48] | 8.1 | 
2 | 14 | 83.6 |  | Cc1nc(C(C)O)sc1-c1csc(Nc2ccc(CNc3ccc(Cl)cc3F)cn2)n1.Cl.Cl (stereo not shown) [Compound I-157] |  | (−) (when the difference is 3 μmol/L or less, this was defined as (−))
3 |  |  | 2.8 | Cc1nc(C)c(-c2csc(Nc3ccc(C(=O)C4CCCC4)cn3)n2)s1 [Compound I-897] |  | 
